# Reference: patent publication US20260118345A1, “METHOD OF EVALUATING INTERCELLULAR INTERACTIONS IN NEUROINFLAMMATION” (FUJIFILM Corporation, priority 2023, published 2026)
# Key:
# Format in all cases: cell-based, human
# NF-κB = NF-κB localization by immunostaining after LPS stimulation, two-dimensional three-cell-type co-culture of astrocytes, neurons and microglia; conditions: LPS 100 ng/mL, no R-7050
# Procedure: Matrigel basement membrane matrix (Corning, 356234) diluted 120-fold with DMEM/F12 (Life technologies, 11320-033) was added to a 96-well plate at 65 μL/well and allowed to stand at 4° C. After 24 hours, the culture medium was replaced with a progenitor cell culture medium and used.
# Astrocyte precursor cells (XCell Science, XCS-AP-001-1V) were seeded in a 96-well plate at a density of 5×10^4 cells/well and cultured under the conditions of 37° C. and 5% CO2. The next day, the culture medium was replaced with the differentiation-inducing culture medium and further cultured for 5 days to differentiate into astrocytes.
# The neurons were produced by forcing expression of the Ngn2 gene from iPS cells (WO2014/148646A; and Zhang Y, et al., Neuron, 78:785-98, 2013), and the cells that had been frozen and stored were used. The cells that had been frozen and stored were thawed in a warm bath at 37° C., and after thawing, the cells were added to the co-culture medium and centrifuged at 600×g at room temperature for 5 minutes. After centrifugation, the supernatant was removed, the cells were suspended in 1 mL of the co-culture medium, and the number of cells was counted.
# As the microglia, iPS cell-derived microglia (iCell (registered trademark) Microglia, FCDI, C1110) were used. The cells that had been frozen and stored were thawed in a warm bath at 37° C., and after thawing, the cells were added to the co-culture medium and centrifuged at 600×g at room temperature for 5 minutes. After centrifugation, the supernatant was removed, the cells were suspended in 1 mL of the co-culture medium, and the number of cells was counted.
# The neurons and the microglia were mixed in a ratio of 3:1 and seeded on the astrocytes at 4×10^4 cells/well. The cells were cultured under the conditions of 37° C. and 5% CO2, and half of the culture medium was replaced three times a week.
# (§1) Microglia were specifically stimulated by adding LPS (FUJIFILM Wako Pure Chemical Corporation, 124-05151) at 100 ng/mL to the two-dimensional co-culture that had been cultured for 4 weeks. The cells were fixed by treating, for 30 minutes, with a formaldehyde solution (FUJIFILM Wako Pure Chemical Corporation, 061-00416) diluted 10-fold with PBS(−) (FUJIFILM Wako Pure Chemical Corporation, 166-23555) without treatment, and at 0.5 hours, 1 hour, 3 hours, 6 hours, and 24 hours after the treatment.
# In addition, in the two-dimensional co-culture that had been cultured for 19 days, LPS (FUJIFILM Wako Pure Chemical Corporation, 124-05151) was added at 100 ng/ml and R-7050 (Cayman Chemical Company, 16870), which is a TNFR1 inhibitor, was added at 10 μmol/L, and the effect of TNF-α on the intercellular interaction induced by LPS stimulation was evaluated. The cells were fixed by treating, for 30 minutes, with a formaldehyde solution (FUJIFILM Wako Pure Chemical Corporation, 061-00416) diluted 10-fold with PBS (−) (FUJIFILM Wako Pure Chemical Corporation, 166-23555) without treatment, and at 0.5 hours, 1 hour, 3 hours, 6 hours, and 24 hours after the treatment.
# The fixed cells were washed with PBS (−), and blocking and permeabilization were performed by treating with a solution (1% BSA/0.2% Triton X-100) in which BSA (Sigma-Aldrich, A4161) and Triton (registered trademark) X-100 (BioVision, 2104-100) were diluted to 1% and 0.2% with PBS (−) for 30 minutes. […]
# STAT1 [1] = assay: STAT1 localization by immunostaining after LPS stimulation, three-cell-type co-culture of neurons, astrocytes and microglia; conditions: LPS 100 ng/mL
# Procedure: as §1, with “treatment. […]” for “treatment.”
# The next day, the cells were washed with PBS (−), then as a secondary antibody reaction, treated with Donkey anti-goat Alexa Fluor (registered trademark) 488 (Thermo Fisher Scientific, A11055) diluted 1000-fold, Donkey anti-rabbit Alexa Fluor (registered trademark) 594 (Thermo Fisher Scientific, A32754) diluted 1000-fold, and Hoechst (registered trademark) 33342 (Dojindo, 346-07951) diluted 1000-fold as a secondary antibody reaction, and allowed to stand at room temperature for 60 minutes. After washing with PBS (−), the cells were imaged with a fluorescence microscope (Nikon, ECLIPSE Ti) to acquire an image. […]
# STAT1 [2] = assay: STAT1 localization after LPS stimulation, two-cell-type co-culture of nerve and astrocytes; conditions: co-culture without microglia, all time points
substance,measurement,setting,value
lipopolysaccharide [LPS],nuclear translocation of NF-κB,NF-κB; 0.5 hours and 1 hours after the LPS treatment,only some cells
same,nuclear translocation of NF-κB,NF-κB; 3 hours and 6 hours after the LPS treatment,many cells
same,STAT1 localized in the nucleus,STAT1 [1]; 1 hour and 3 hours after the LPS stimulation,some cells
same,STAT1 localized in the nucleus,STAT1 [1]; 6 hours after the stimulation,many cells
same,nuclear translocation of STAT1,STAT1 [2],not observed at any time
